Laboratory results taken from PubChem BioAssay (NCI).
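Exposure lasted 48 hours, with cells grown in 96-well plates and compounds tested at five concentrations. The concentration for full growth arrest is given as TGI.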

Experiments:
Assay in all cases: NCI tumour cell line growth inhibition, 48 h
[1] = system: HOP-62 NSCLC
[2] = system: MDA-N
[3] = system: DU-145 prostate
[4] = system: NCI/ADR-RES ovarian
[5] = system: UACC-257 melanoma
[6] = system: MDA-MB-231 breast
[7] = system: OVCAR-8 ovarian
[8] = system: OVCAR-5 ovarian
[9] = system: SNB-75 CNS
[10] = system: K-562 leukemia
[11] = system: UO-31 renal
[12] = system: TK-10 renal
[13] = system: COLO 205 colon
[14] = system: EKVX NSCLC
[15] = system: 786-0 renal
[16] = system: OVCAR-3 ovarian
[17] = system: BT-549 breast
[18] = system: PC-3 prostate
[19] = system: SN12C renal
[20] = system: NCI-H226 lung
[21] = system: A498 renal
[22] = system: CAKI-1 renal
[23] = system: HS 578T breast
[24] = system: MALME-3M melanoma
[25] = system: SK-OV-3 ovarian
[26] = system: SF-295 CNS
[27] = system: SK-MEL-28 melanoma
[28] = system: HCT-116 colon
[29] = system: OVCAR-4 ovarian
[30] = system: HCT-15 colon
[31] = system: ACHN renal
[32] = system: SK-MEL-2 melanoma
[33] = system: UACC-62 melanoma
[34] = system: A549 NSCLC
[35] = system: SW-620 colon
[36] = system: MDA-MB-435
[37] = system: T-47D breast
[38] = system: HT29 colon
[39] = system: MOLT-4 leukemia
[40] = system: RPMI-8226 leukemia
[41] = system: LOX IMVI melanoma
[42] = system: M14 melanoma
[43] = system: SNB-19 CNS
[44] = system: HCC-2998 colon
[45] = system: U251 CNS
[46] = system: HOP-92 NSCLC
[47] = system: SR leukemia
[48] = system: CCRF-CEM leukemia
[49] = system: KM12 colon
[50] = system: NCI-H23 lung
[51] = system: NCI-H460 lung
[52] = system: MCF7 breast
[53] = system: SK-MEL-5 melanoma

Compound `NCC(O)CNCC/C=C\C/C=C\C/C=C\C/C=C\C/C=C\C/C=C\CCCCC/C=C\CCNCC(O)CN` (stereo not given) has a TGI [1] of 3.53 µM, a TGI [2] of 3.09 µM and a TGI [3] of 3.26 µM. For the same compound, the TGI [4] was 2.82 µM, the TGI [5] was 4.43 µM and the TGI [6] was 3.18 µM. It also gave a TGI [7] of 3.21 µM, a TGI [8] of 3.41 µM and a TGI [9] of 3.2 µM. The TGI [10] was > 100 µM, the TGI [11] was 3.72 µM and the TGI [12] was 2.96 µM. It also gave a TGI [13] of 3.41 µM, a TGI [14] of 2.15 µM and a TGI [15] of 3.07 µM. For the same compound, the TGI [16] was 3.42 µM, the TGI [17] was 7.47 µM and the TGI [18] was 3.49 µM. It also gave a TGI [19] of 3.03 µM, a TGI [20] of 13.4 µM and a TGI [21] of 3.34 µM. For the same compound, the TGI [22] was 3.63 µM, the TGI [23] was 2.74 µM and the TGI [24] was 4.34 µM. It also gave a TGI [25] of 5.59 µM, a TGI [26] of 4.29 µM and a TGI [27] of 14 µM. The TGI [28] was 3.18 µM, the TGI [29] was 3.61 µM and the TGI [30] was 3.03 µM. For the same compound, the TGI [31] was 3.35 µM.

In the case of `COCCOCN(C(=O)C1=CCC2(CC1)OCCO2)c1ccccc1I`, the TGI [1] is reported as > 50 µM, the TGI [2] is reported as > 50 µM and the TGI [32] is reported as > 50 µM. The TGI [33] was > 50 µM, the TGI [3] was > 50 µM and the TGI [34] was > 50 µM. For the same compound, the TGI [35] was > 50 µM, the TGI [4] was > 50 µM and the TGI [36] was > 50 µM. For the same compound, the TGI [5] was > 50 µM, the TGI [37] was > 50 µM and the TGI [6] was > 50 µM. The TGI [7] was > 50 µM, the TGI [8] was > 50 µM and the TGI [9] was > 50 µM. For the same compound, the TGI [38] was > 50 µM, the TGI [39] was > 50 µM and the TGI [40] was > 50 µM. The TGI [11] was > 50 µM, the TGI [41] was > 50 µM and the TGI [42] was > 50 µM. The TGI [12] was > 50 µM, the TGI [13] was > 50 µM and the TGI [43] was > 50 µM. For the same compound, the TGI [44] was > 50 µM, the TGI [45] was > 50 µM and the TGI [14] was > 50 µM. For the same compound, the TGI [15] was > 50 µM, the TGI [16] was > 50 µM and the TGI [46] was > 50 µM. The TGI [18] was > 50 µM, the TGI [19] was > 50 µM and the TGI [47] was > 50 µM. For the same compound, the TGI [48] was > 50 µM, the TGI [49] was > 50 µM and the TGI [50] was > 50 µM. The TGI [51] was > 50 µM, the TGI [20] was > 50 µM and the TGI [52] was > 50 µM. The TGI [21] was > 50 µM, the TGI [22] was > 50 µM and the TGI [25] was > 50 µM. The TGI [26] was > 50 µM, the TGI [53] was > 50 µM and the TGI [27] was > 50 µM. The TGI [28] was > 50 µM, the TGI [29] was > 50 µM and the TGI [30] was > 50 µM. The TGI [31] was > 50 µM.
